Laboratory results as given in ChEMBL document CHEMBL1201861, “Genomics of Drug Sensitity in Cancer screening data, Wellcome Trust Sanger Institute”.

Experiments:
Assay type in all cases: functional, cell-based
SW 1116 = assay: cells; details: Homo sapiens;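 further: growth inhibition of SW1116 cells, read out with a cell viability assay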
Description: SANGER: Inhibition of human SW1116 cell growth in a cell viability assay.

NCI-H1048 = assay: cells; details: Homo sapiens;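 further: growth inhibition of human NCI-H1048 cells, read out with a cell viability assay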
Description: SANGER: Inhibition of human NCI-H1048 cell growth in a cell viability assay.

NCI-H2291 = assay: cells; details: Homo sapiens
Description: SANGER: Inhibition of human NCI-H2291 cell growth in a cell viability assay.

NCI-H2029 = assay: cells; details: Homo sapiens;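 further: Read-out is a viability assay on the cultured cells, and IC50 is the concentration that suppresses cell growth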
Description: SANGER: Inhibition of human NCI-H2029 cell growth in a cell viability assay.

LU-135 = assay: cells; details: Homo sapiens
Description: SANGER: Inhibition of human LU-135 cell growth in a cell viability assay.

RH-18 = assay: cells; details: Homo sapiens, Rh18;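 further: growth inhibition of human RH-18 cells, read out with a cell viability assay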
Description: SANGER: Inhibition of human RH-18 cell growth in a cell viability assay.

D-566MG = assay: cells; details: Homo sapiens
A549 = assay: cells; details: Homo sapiens;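 further: growth inhibition of A549 cells, read out with a cell viability assay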
Description: SANGER: Inhibition of human A549 cell growth in a cell viability assay.

YH-13 = assay: cells; details: Homo sapiens;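 further: cell viability readout of growth suppression in the human YH-13 cell line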
Description: SANGER: Inhibition of human YH-13 cell growth in a cell viability assay.

CFPAC-1 = assay: cells; details: Homo sapiens;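 further: cell viability readout used to gauge suppression of CFPAC-1 cell proliferation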
Description: SANGER: Inhibition of human CFPAC-1 cell growth in a cell viability assay.

CHP-134 = assay: SANGER: Inhibition of human CHP-134 cell growth in a cell viability assay.
TI-73 = assay: cells; details: Homo sapiens;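 further: cell viability assay measuring how much compounds suppress growth of the cultured cell line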
Description: SANGER: Inhibition of human TI-73 cell growth in a cell viability assay.

EPLC-272H = assay: cells; details: Homo sapiens
Description: SANGER: Inhibition of human EPLC-272H cell growth in a cell viability assay.

H9 = assay: cells; details: Homo sapiens
Description: SANGER: Inhibition of human H9 cell growth in a cell viability assay.

BALL-1 = assay: cells; details: Homo sapiens;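 further: growth inhibition of BALL-1 cells, read out with a cell viability assay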
Description: SANGER: Inhibition of human BALL-1 cell growth in a cell viability assay.

IPC-298 = assay: SANGER: Inhibition of human IPC-298 cell growth in a cell viability assay.
MFE-296 = assay: SANGER: Inhibition of human MFE-296 cell growth in a cell viability assay.
RT-4 = assay: SANGER: Inhibition of human RT4 cell growth in a cell viability assay.
SW900 = assay: cells; details: Homo sapiens;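 further: IC50 is the concentration that inhibits SW900 cell growth, measured by a cell viability assay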
Description: SANGER: Inhibition of human SW900 cell growth in a cell viability assay.

NCI-H1666 = assay: cells; details: Homo sapiens;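 further: growth inhibition of the cell line, read out with a cell viability assay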
Description: SANGER: Inhibition of human NCI-H1666 cell growth in a cell viability assay.

NCI-H128 = assay: SANGER: Inhibition of human NCI-H128 cell growth in a cell viability assay.; details: Homo sapiens, NCI-H128
KP-N-RT-BM-1 = assay: SANGER: Inhibition of human KP-N-RT-BM-1 cell growth in a cell viability assay.
SKM-1 = assay: SANGER: Inhibition of human SKM-1 cell growth in a cell viability assay.; details: Homo sapiens, SKM-1
CP67-MEL = assay: SANGER: Inhibition of human CP67-MEL cell growth in a cell viability assay.

SMILES	IC50 (SW 1116) [µM]	IC50 (NCI-H1048) [nM]	IC50 (NCI-H2291) [µM]	IC50 (NCI-H2029) [µM]	IC50 (LU-135) [nM]	IC50 (RH-18) [nM]	IC50 (D-566MG) [nM]	IC50 (A549) [nM]	IC50 (YH-13) [nM]	IC50 (CFPAC-1) [nM]	IC50 (CHP-134) [nM]	IC50 (TI-73) [nM]	IC50 (EPLC-272H) [nM]	IC50 (H9) [nM]	IC50 (BALL-1) [µM]	IC50 (SW900) [nM]	IC50 (NCI-H1666) [nM]	IC50 (NCI-H128) [µM]	IC50 (KP-N-RT-BM-1) [nM]	IC50 (SKM-1) [µM]	also measured
NC1(c2ccc(-c3nc4ccn5c(=O)[nH]nc5c4cc3-c3ccccc3)cc2)CCC1 [MK-2206]	> 4	2970	> 4	> 4	> 4000	> 4000	> 4000	> 4000	2460	> 4000	> 4000	> 4000	1170	389	> 4	–	–	–	–	–	–
CO[C@@H]1[C@H](N(C)C(=O)c2ccccc2)C[C@H]2O[C@]1(C)n1c3ccccc3c3c4c(c5c6ccccc6n2c5c31)C(=O)NC4 [MIDOSTAURIN]	–	–	–	–	–	–	–	–	–	–	–	–	–	–	–	–	–	–	–	–	IC50 (IPC-298): > 512 nM; IC50 (MFE-296): > 512 nM; IC50 (RT-4): > 512 nM
O=C(NCCCNc1nc(Nc2cccc(NC(=O)N3CCCC3)c2)ncc1I)c1cccs1 [BX-795]	> 5	1790	> 5	> 5	> 5000	> 5000	1300	2140	629	> 5000	1940	2110	> 5000	–	> 5	> 5000	> 5000	–	–	–	–
O=C1NC(=O)c2c1c(-c1ccccc1Cl)cc1[nH]c3ccc(O)cc3c21	> 2	> 2000	> 2	> 2	> 2000	> 2000	> 2000	> 2000	> 2000	> 2000	> 2000	> 2000	> 2000	832	> 2	> 2000	> 2000	–	–	–	–
Cc1cc(N2CCOCC2)cc2[nH]c(-c3c(NC[C@@H](O)c4cccc(Cl)c4)cc[nH]c3=O)nc12	–	–	–	–	–	–	–	–	–	–	–	–	–	–	–	–	–	> 5.12	1440	> 5.12	IC50 (CP67-MEL): 898 nM
C=CC(=O)N1CCCC(Nc2nc(Nc3ccc(N(C)C(=O)CC)cc3)nc3[nH]cnc23)C1 (stereo unspecified)	–	–	–	–	–	–	–	–	–	–	–	–	–	–	–	–	–	> 10.2	> 10200	> 10.2	IC50 (CP67-MEL): > 10200 nM
NC(=O)c1cccc(-c2cc(Nc3ccc(OC(F)(F)F)cc3)ncn2)c1	–	–	–	–	–	–	–	–	–	–	–	–	–	–	–	–	–	> 1.28	> 1280	> 1.28	IC50 (CP67-MEL): > 1280 nM
CC1(C)CCC(c2ccc(Cl)cc2)=C(CN2CCN(c3ccc(C(=O)NS(=O)(=O)c4ccc(N[C@H](CCN5CCOCC5)CSc5ccccc5)c(S(=O)(=O)C(F)(F)F)c4)cc3)CC2)C1 [NAVITOCLAX]	> 2	510	> 2	> 2	186	60.5	> 2000	> 2000	> 2000	> 2000	163	> 2000	> 2000	> 2000	> 2	> 2000	> 2000	–	–	–	–
NC(=O)Nc1cc(-c2cccc(F)c2)sc1C(=O)N[C@H]1CCCNC1 [AZD-7762]	> 2	919	> 2	> 2	> 2000	> 2000	147	1490	157	723	–	209	221	122	> 2	1120	> 2000	–	–	–	–
COc1ccc(N(C(=O)Oc2c(C)cccc2C)c2ccnc(Nc3ccc(N4CCN(C)CC4)cc3)n2)c(OC)c1	–	–	–	–	–	–	–	–	–	–	–	–	–	–	–	–	–	> 5.12	> 5120	> 5.12	IC50 (CP67-MEL): > 5120 nM
CS(=O)(=O)N1CCN(Cc2cc3nc(-c4cccc5[nH]ncc45)nc(N4CCOCC4)c3s2)CC1 [PICTILISIB]	> 4	2110	> 4	> 4	> 4000	> 4000	1630	1400	304	> 4000	> 4000	> 4000	687	–	> 4	> 4000	2510	–	–	–	–
